Test results reported in patent US9708314B2, “Heterocyclic amide compound” (NISSAN CHEMICAL INDUSTRIES, LTD., priority 2013, dated 2017).

How the values were obtained:
Assay type in all cases: in vivo
[1] = tested on: Scirpus juncoides; test: Test Example 1: herbicidal activity, application before weed generation in submerged conditions; settings: Application herbicide amount 320 g/ha; Seventeenth Table
Outline: (§1)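 Submerged pot test: alluvial soil, 4 cm water, seeds sown mixed, 2.5-leaf rice transplanted; emulsion in water applied to surface day of sowing, dose g/ha; greenhouse 25–30° C.; 3 wk; 0–5 rating.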

[2] = tested on: Monochoria vaginalis; test: as above; settings: Application herbicide amount 320 g/ha; Seventeenth Table
Outline: as §1

[3] = tested on: Echinochloa oryzacola Vasing.; test: as above; settings: Application herbicide amount 320 g/ha; Seventeenth Table
Outline: as §1

[4] = tested on: Digitaria ciliaris; test: Test Example 4: herbicidal effect by application to foliage (diluvial soil, plastic box); settings: application to foliage, application herbicide amount 320 g/ha
Outline: (§2)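 Read-out is a 0–5 visual grade of herbicidal ratio (5: ≥90%, almost withered; 0: ≤5%) taken three weeks after treatment. Compound was applied as a diluted emulsion to stem and leaf parts of 14-day greenhouse-grown plants (25° C. to 30° C.) at rates expressed as g/ha.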

[5] = tested on: Alopecurus myosuroides; test: as above; settings: application to foliage, application herbicide amount 320 g/ha
Outline: as §2

[6] = tested on: Echinochloa crus-galli var. crus-galli; test: as above; settings: application to foliage, application herbicide amount 320 g/ha
Outline: as §2

[7] = tested on: Apera spica-venti.; test: as above; settings: application to foliage, application herbicide amount 320 g/ha
Outline: as §2

[8] = tested on: Galium spurium; test: as above; settings: application to foliage, application herbicide amount 320 g/ha
Outline: as §2

[9] = tested on: Setaria viridis; test: as above; settings: application to foliage, application herbicide amount 320 g/ha
Outline: as §2

[10] = tested on: Abutilon theophrasti; test: as above; settings: application to foliage, application herbicide amount 320 g/ha
Outline: as §2

[11] = tested on: Chenopodium album; test: as above; settings: application to foliage, application herbicide amount 320 g/ha
Outline: as §2

[12] = tested on: Avena fatua; test: as above; settings: application to foliage, application herbicide amount 320 g/ha
Outline: as §2

[13] = tested on: Lolium multiflorum Lam.; test: as above; settings: application to foliage, application herbicide amount 320 g/ha
Outline: as §2

[14] = tested on: Veronica persica; test: as above; settings: application to foliage, application herbicide amount 320 g/ha
Outline: as §2

SMILES	B: Scirpus juncoides (herbicidal effect grade) [1]	C: Monochoria vaginalis (herbicidal effect grade) [2]	A: Echinochloa oryzicola Vasing. (herbicidal effect grade) [3]	F (Digitaria ciliaris) herbicidal effect [4]	J (Alopecurus myosuroides) herbicidal effect [5]	H (Echinochloa crus-galli var. crus-galli) herbicidal effect [6]	L (Apera spica-venti.) herbicidal effect [7]	Q (Galium spurium) herbicidal effect [8]	G (Setaria viridis) herbicidal effect [9]	M (Abutilon theophrasti) herbicidal effect [10]	O (Chenopodium album) herbicidal effect [11]	I (Avena fatua) herbicidal effect [12]	K (Lolium multiflorum Lam.) herbicidal effect [13]	R (Veronica persica) herbicidal effect [14]
Cc1nnc(NC(=O)c2ccc(C(F)(F)F)n3c(C4CCCC4)nnc23)o1 [1-026]	4 (Herbicidal ratio of 70% or more and less than 90%)	4 (Herbicidal ratio of 70% or more and less than 90%)	5 (Herbicidal ratio of 90% or more (almost completely withered))	3 (Herbicidal ratio of 40% or more and less than 70%)	1 (Herbicidal ratio of 5% or more and less than 20%)	3 (Herbicidal ratio of 40% or more and less than 70%)	2 (Herbicidal ratio of 20% or more and less than 40%)	2 (Herbicidal ratio of 20% or more and less than 40%)	3 (Herbicidal ratio of 40% or more and less than 70%)	3 (Herbicidal ratio of 40% or more and less than 70%)	5 (Herbicidal ratio of 90% or more (almost completely withered))	1 (Herbicidal ratio of 5% or more and less than 20%)	1 (Herbicidal ratio of 5% or more and less than 20%)	5 (Herbicidal ratio of 90% or more (almost completely withered))
CCOCc1nnc2c(C(=O)Nc3nnc(C)o3)ccc(C(F)(F)F)n12 [1-027]	3 (Herbicidal ratio of 40% or more and less than 70%)	4 (Herbicidal ratio of 70% or more and less than 90%)	5 (Herbicidal ratio of 90% or more (almost completely withered))	5 (Herbicidal ratio of 90% or more (almost completely withered))	2 (Herbicidal ratio of 20% or more and less than 40%)	5 (Herbicidal ratio of 90% or more (almost completely withered))	3 (Herbicidal ratio of 40% or more and less than 70%)	3 (Herbicidal ratio of 40% or more and less than 70%)	4 (Herbicidal ratio of 70% or more and less than 90%)	5 (Herbicidal ratio of 90% or more (almost completely withered))	5 (Herbicidal ratio of 90% or more (almost completely withered))	2 (Herbicidal ratio of 20% or more and less than 40%)	1 (Herbicidal ratio of 5% or more and less than 20%)	5 (Herbicidal ratio of 90% or more (almost completely withered))
Cc1nnc(NC(=O)c2ccc(C(F)(F)F)n3c(C4=NOC(C)(C)C4)nnc23)o1 [1-029]	3 (Herbicidal ratio of 40% or more and less than 70%)	4 (Herbicidal ratio of 70% or more and less than 90%)	5 (Herbicidal ratio of 90% or more (almost completely withered))	5 (Herbicidal ratio of 90% or more (almost completely withered))	1 (Herbicidal ratio of 5% or more and less than 20%)	5 (Herbicidal ratio of 90% or more (almost completely withered))	1 (Herbicidal ratio of 5% or more and less than 20%)	0 (Herbicidal ratio of 5% or less (almost no effect))	4 (Herbicidal ratio of 70% or more and less than 90%)	5 (Herbicidal ratio of 90% or more (almost completely withered))	5 (Herbicidal ratio of 90% or more (almost completely withered))	1 (Herbicidal ratio of 5% or more and less than 20%)	1 (Herbicidal ratio of 5% or more and less than 20%)	5 (Herbicidal ratio of 90% or more (almost completely withered))
CSCc1nnc2c(C(=O)Nc3nnc(C)o3)ccc(C(F)(F)F)n12 [1-030]	3 (Herbicidal ratio of 40% or more and less than 70%)	3 (Herbicidal ratio of 40% or more and less than 70%)	5 (Herbicidal ratio of 90% or more (almost completely withered))	5 (Herbicidal ratio of 90% or more (almost completely withered))	3 (Herbicidal ratio of 40% or more and less than 70%)	5 (Herbicidal ratio of 90% or more (almost completely withered))	4 (Herbicidal ratio of 70% or more and less than 90%)	4 (Herbicidal ratio of 70% or more and less than 90%)	5 (Herbicidal ratio of 90% or more (almost completely withered))	5 (Herbicidal ratio of 90% or more (almost completely withered))	5 (Herbicidal ratio of 90% or more (almost completely withered))	4 (Herbicidal ratio of 70% or more and less than 90%)	3 (Herbicidal ratio of 40% or more and less than 70%)	4 (Herbicidal ratio of 70% or more and less than 90%)
Cc1nnc(NC(=O)c2ccc(C(F)(F)F)n3c(CSCC(F)(F)F)nnc23)o1 [1-031]	3 (Herbicidal ratio of 40% or more and less than 70%)	3 (Herbicidal ratio of 40% or more and less than 70%)	4 (Herbicidal ratio of 70% or more and less than 90%)	4 (Herbicidal ratio of 70% or more and less than 90%)	1 (Herbicidal ratio of 5% or more and less than 20%)	5 (Herbicidal ratio of 90% or more (almost completely withered))	1 (Herbicidal ratio of 5% or more and less than 20%)	3 (Herbicidal ratio of 40% or more and less than 70%)	4 (Herbicidal ratio of 70% or more and less than 90%)	5 (Herbicidal ratio of 90% or more (almost completely withered))	5 (Herbicidal ratio of 90% or more (almost completely withered))	2 (Herbicidal ratio of 20% or more and less than 40%)	1 (Herbicidal ratio of 5% or more and less than 20%)	4 (Herbicidal ratio of 70% or more and less than 90%)
CCSc1nnc2c(C(=O)Nc3nnc(C)o3)ccc(C(F)(F)F)n12 [1-032]	3 (Herbicidal ratio of 40% or more and less than 70%)	2 (Herbicidal ratio of 20% or more and less than 40%)	5 (Herbicidal ratio of 90% or more (almost completely withered))	5 (Herbicidal ratio of 90% or more (almost completely withered))	1 (Herbicidal ratio of 5% or more and less than 20%)	5 (Herbicidal ratio of 90% or more (almost completely withered))	2 (Herbicidal ratio of 20% or more and less than 40%)	2 (Herbicidal ratio of 20% or more and less than 40%)	5 (Herbicidal ratio of 90% or more (almost completely withered))	5 (Herbicidal ratio of 90% or more (almost completely withered))	5 (Herbicidal ratio of 90% or more (almost completely withered))	2 (Herbicidal ratio of 20% or more and less than 40%)	1 (Herbicidal ratio of 5% or more and less than 20%)	4 (Herbicidal ratio of 70% or more and less than 90%)
